Test results reported in patent US20250326722A1 (SHANGHAI HANSOH BIOMEDICAL CO., LTD., priority 2022, published 2025).

Legend:
[1] = molecular target: PCSK9 secreted by HepG2 cells (Homo sapiens (Human), UniProt Q8NBP7); assay: Effect on the concentration of PCSK9 secreted by HepG2 cells (ELISA); format: cell-based; conditions: 48 hours incubation, read-out: Inhibitory activity on PCSK9, IC50
[2] = system: LDLR level in HepG2 cells; assay: Effect on the LDLR level in HepG2 cells (ELISA); format: cell-based, human; parameters: concentration or dose not given beside the values; conditions: 48 hours incubation, LDLR ELISA of lysate
Protocol: To detect the effect of the compounds on the LDLR protein level.
Envision (PE-Cisbio: 2105-0020), centrifuge (Eppendorf: 5810R), water purifier (THERMO: Pacific T II+Micropure), plate washer (Thermo: […] VERSA), and microplate shaker (Thermo: 88882006)
• 1) HepG2 cell strain was cultured in the complete culture medium at 37° C., 5% CO2 to 70-90% confluence. • 2) The cells were digested and resuspended in the experimental culture medium, inoculation was performed at 25,000 cells/well/200 μL in a 96-well cell culture plate, and the cells were cultured at 37° C., 5% CO2 for 20-24 hours. • 3) The culture medium was removed from the cell culture plate, and the cell culture plate was washed once by adding 200 μl of the experimental culture medium to each well. • 4) Preparation of positive control compound and compound to be tested: the positive control compound and the compound to be tested were diluted on the compound plate. • 5) The diluted compound was added to the cell culture plate at 250 μL per well and incubated at 37° C. and 5% CO2 for 48 hours. • 6) The cell culture medium was removed, the cells were washed with PBS, and 50 μL of the cell lysis buffer and the protein inhibitor were added. • 7) After centrifugation, the lysate was removed and the sample was stored for later use. • 8) Preparation of standard curve: corresponding volumes of Dilution buffer were successively added to respective standard tubes, and the standard was diluted in series by taking the corresponding volume from the original tube or the last concentration tube. • 9) Preparation of washing liquid: 10× Wash buffer was diluted into 1× with Milli-Q for later use. • 10) According to the standard curve wells and sample wells set according to a plate map, 80 μL/well of the corresponding standards and samples were added to the wells, with 2 replicate wells. A well in which no standard was added was used as a background value well. A self-adhesive seal was applied, the plate was placed on a plate shaker at room temperature, gently shaken, uniformly mixed, and incubated for 2 hours. • 11) The plate was placed on the plate washer, the washing liquid was set to 350 μL per well, and the plate was washed 4 times repeatedly. • 12) 200 μL of Human LDLR conjugate was added, a self-adhesive seal was applied, and the plate was placed on the plate shaker, well mixed uniformly, and incubated for 2 hours. • 13) The plate was placed on the plate washer, the washing liquid was set to 350 μL per well, and the plate was washed 4 times repeatedly. • 14) 200 μL/well of Substrate solution was added, and the plate was placed in the dark, applied with a self-adhesive seal, placed on the plate shaker, well mixed uniformly, and incubated for 20 minutes. • 15) 50 μL/well of Stop solution was added and mixed uniformly over 20 min. • 16) The optical density (OD) value in each well was measured in sequence at a wavelength of 450 nm by the microplate reader.
After the OD values were read by the microplate reader, the OD value of the 0-concentration standard in the standard group was subtracted from the OD values of the standards, control group, and samples to obtain the actual OD values for these wells. A standard curve was plotted with Graphpad and the concentration of the sample was calculated. If the dilution was performed during the sample detection, the calculated sample concentration was necessarily multiplied by the corresponding dilution ratio in the final calculation, which was the actual concentration of the sample. Concentration increase %=(actual concentration in control-actual concentration in sample)/actual concentration in control*100.

[3] = system: hyperlipidemia animal model of B6-hPCSK9 transgenic mice; assay: In vivo pharmacodynamics in hyperlipidemia animal model of B6-hPCSK9 transgenic mice; parameters: species or system B6-hPCSK9 transgenic C57 mice; conditions: PO administration, 10 mpk, Day 14, high-fat feed
Protocol: The compounds of the present disclosure were evaluated for in vivo pharmacodynamics in a hyperlipidemia animal model of B6-hPCSK9 transgenic mice.
B6-hPCSK9 transgenic C57 mice, 6-8 weeks old, male, purchased from Jiangsu GemPharmatech Co., Ltd.
After delivery to a barrier system, the animals were given one week for acclimatization and began to feed on the high-fat feed. The body weight and feed weight were weighed once a week, and the body weight and food intake thereof were recorded.
a. The animals were grouped by a random grouping method.
c. According to the grouping results, administration with the test drug was started (mode of administration: oral administration; administration volume: 10 mL/kg; frequency of administration: once/day or single administration; administration cycle: 21 days; vehicle: 10% Solutol HS 15/90% Saline).
d. After the test drug was administered, the body weight and feed weight were weighed twice a week and blood was taken once a week.
e. The data was processed with software such as Excel. […] PCSK9 in plasma was detected by ELISA.

Chain of PCSK9 secreted by HepG2 cells (Q8NBP7 153-692): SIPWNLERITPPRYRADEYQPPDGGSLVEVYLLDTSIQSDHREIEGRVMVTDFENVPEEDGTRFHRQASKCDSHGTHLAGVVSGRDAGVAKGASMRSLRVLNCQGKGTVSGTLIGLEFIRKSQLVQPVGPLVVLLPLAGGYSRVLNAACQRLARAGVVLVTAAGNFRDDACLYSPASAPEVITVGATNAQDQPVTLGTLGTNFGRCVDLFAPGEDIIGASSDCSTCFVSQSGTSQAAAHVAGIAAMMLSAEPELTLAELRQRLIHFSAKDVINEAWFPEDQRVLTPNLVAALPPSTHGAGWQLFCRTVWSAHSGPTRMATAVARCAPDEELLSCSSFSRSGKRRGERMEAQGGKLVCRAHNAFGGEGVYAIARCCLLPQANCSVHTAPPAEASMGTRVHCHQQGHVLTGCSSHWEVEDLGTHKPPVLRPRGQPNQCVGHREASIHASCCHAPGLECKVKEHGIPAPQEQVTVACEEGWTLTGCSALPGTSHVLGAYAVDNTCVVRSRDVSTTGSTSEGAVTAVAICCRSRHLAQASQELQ
Chain of PCSK9 secreted by HepG2 cells (Q8NBP7 31-152 partner): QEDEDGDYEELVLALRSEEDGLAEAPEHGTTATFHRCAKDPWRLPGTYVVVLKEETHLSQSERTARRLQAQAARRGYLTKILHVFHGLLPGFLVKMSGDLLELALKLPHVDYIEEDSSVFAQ

Row | SMILES | IC50 [1] [µM] | LDLR expression level [2] [%] | LDL-C change, Day 14 [3] [%]
1 | O=C1c2ncccc2CN1c1ccc(N[C@H]2CC[C@H](Nc3ncc(C(F)(F)F)nn3)C2)nc1 [Example 144] | 27.5 | 117 | −30.39
2 | O=C1c2c(cccc2C(F)(F)F)CN1c1ccc(N[C@H]2CC[C@H](Nc3ncc(C(F)(F)F)nn3)C2)nc1 [Example 157, 7-(Trifluoromethyl)-2-(6-(((1S,3S)-3-((6-(trifluoromethyl)-1,2,4-triazin-3-yl)amino)cyclopentyl)amino)pyridin-3-yl) isoindolin-1-one] | 4.2 | 129 | −28.99
3 | Cc1cc2c(cn1)CN(c1ccc(N[C@H]3CC[C@H](Nc4ncc(C(F)(F)F)nn4)C3)nc1)C2=O [Example 148, 6-Methyl-2-(6-(((1S,3S)-3-((6-(trifluoromethyl)-1,2,4-triazin-3-yl)amino)cyclopentyl)amino)pyridin-3-yl)-2,3-dihydro-1H-pyrrolo[3,4-c]pyridin-1-one] | 9.4 | 121 | −24.61
